How the values were obtained:
5-HT2A receptor = biological target: T1, 5-HT2A receptor (Homo sapiens, UniProt P28223); test: Radioligand binding affinity on 5-HT2A receptor ([3H]-Ketanserin); settings: 5-HT2A receptor protein expressed in HEK-293 cells
T1 construct: expressed in transfected cells; host or cells: HEK-293
Method: (§1) (1) Determination of the affinity of the diarylo[a,g]quinolizines of formula (I) and derivatives thereof on dopamine D1, dopamine D2, 5-HT1A and 5-HT2A receptors.
(§2) The compound of the invention at different concentrations (10^−5 M-10^−11 M), an isotope receptor ligand and a receptor protein were loaded into a reaction tube, incubated at 30° C. in a water bath for 60 min, and then terminated in a refrigerator. The mixture was filtered through suction filtration using GF/C glass fiber paper on a Millipore filter (millipore) cell sample collector, and dried. The resulting sample was placed into a 0.5 mL tube, added with 500 μL of liquid scintillation fluid, and counted for measuring the intensity of radioativity.
For 5-HT2A receptor: isotope receptor ligand [3H]-Ketanserin; 5-HT2A receptor protein expressed in HEK-293 cells;
(§3) Firstly, the above […] were dissolved in DMSO and then diluted with double distilled water to the appropriate concentration (10^−5 M-10^−11 M).
(§4) (+) Butaclamo was purchased from RBI Company, GF/C glass fiber filter paper was purchased from Whatman Co., liquid scintillation fluid (dopamine D1, D2 receptors)/liposoluble scintillation fluid (5-HT1A. 5-HT2A receptor), Beckman LS-6500 multi-function liquid scintillation counter.

5-HT1A receptor = biological target: T2, 5-HT1A receptor (Homo sapiens, UniProt P08908); test: Radioligand binding affinity on 5-HT1A receptor ([3H]8-OH-DPAT); settings: 5-HT1A receptor protein expressed in HEK-293 cells
T2 sequence (P08908 1-422): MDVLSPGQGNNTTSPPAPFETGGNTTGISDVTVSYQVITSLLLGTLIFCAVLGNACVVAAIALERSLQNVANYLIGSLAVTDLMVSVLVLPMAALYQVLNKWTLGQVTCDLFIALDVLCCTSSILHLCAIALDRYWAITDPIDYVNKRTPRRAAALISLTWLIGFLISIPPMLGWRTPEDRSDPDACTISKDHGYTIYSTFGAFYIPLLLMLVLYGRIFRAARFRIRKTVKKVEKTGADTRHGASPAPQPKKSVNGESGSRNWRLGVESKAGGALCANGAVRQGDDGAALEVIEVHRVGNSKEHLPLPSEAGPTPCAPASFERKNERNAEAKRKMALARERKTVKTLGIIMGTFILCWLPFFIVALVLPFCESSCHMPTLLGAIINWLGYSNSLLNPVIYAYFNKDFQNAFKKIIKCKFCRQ
Method: as §1, §2
For 5-HT1A receptor: isotope receptor ligand [3H]8-OH-DPAT; 5-HT1A receptor protein expressed in HEK-293 cells;
as §3, §4

dopamine D1 receptor = dopamine D1 receptor (Macaca mulatta, UniProt O77680); test: Radioligand binding affinity on dopamine D1 receptor ([3H]-SCH23390); settings: D1 receptor protein expressed in HEK-293 cells
Method: as §2, §3, §4

dopamine D2 receptor = dopamine D2 receptor (Rattus norvegicus, UniProt P61169); test: Radioligand binding affinity on dopamine D2 receptor ([3H]Spiperone); settings: D2 receptor protein expressed in HEK-293 cells
Method: as §2, §3, §4

Sequence of dopamine D2 receptor (P61169 whole entry): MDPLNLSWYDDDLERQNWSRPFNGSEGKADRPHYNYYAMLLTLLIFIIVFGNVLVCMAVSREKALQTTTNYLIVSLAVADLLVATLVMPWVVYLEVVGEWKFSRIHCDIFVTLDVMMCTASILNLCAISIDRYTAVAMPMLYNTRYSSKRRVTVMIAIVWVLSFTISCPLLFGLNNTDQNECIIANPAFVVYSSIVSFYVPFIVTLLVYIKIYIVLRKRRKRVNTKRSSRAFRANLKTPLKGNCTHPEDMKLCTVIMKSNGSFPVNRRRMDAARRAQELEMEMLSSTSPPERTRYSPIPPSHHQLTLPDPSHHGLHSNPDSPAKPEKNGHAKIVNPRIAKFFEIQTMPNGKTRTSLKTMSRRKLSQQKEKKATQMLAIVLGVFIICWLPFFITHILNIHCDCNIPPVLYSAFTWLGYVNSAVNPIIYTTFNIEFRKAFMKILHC
Sequence of dopamine D1 receptor (O77680 whole entry): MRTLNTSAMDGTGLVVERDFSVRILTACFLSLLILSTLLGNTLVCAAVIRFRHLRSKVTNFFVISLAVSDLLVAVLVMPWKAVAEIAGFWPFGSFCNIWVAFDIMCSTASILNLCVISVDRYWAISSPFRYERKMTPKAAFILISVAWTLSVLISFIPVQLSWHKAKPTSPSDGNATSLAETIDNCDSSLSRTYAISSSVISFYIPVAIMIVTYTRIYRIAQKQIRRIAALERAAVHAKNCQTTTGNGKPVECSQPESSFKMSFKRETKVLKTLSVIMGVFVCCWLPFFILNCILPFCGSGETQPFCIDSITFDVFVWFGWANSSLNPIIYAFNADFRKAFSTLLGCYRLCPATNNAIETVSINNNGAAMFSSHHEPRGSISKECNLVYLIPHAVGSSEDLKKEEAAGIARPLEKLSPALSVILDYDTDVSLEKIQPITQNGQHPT
T1 sequence (P28223 whole entry): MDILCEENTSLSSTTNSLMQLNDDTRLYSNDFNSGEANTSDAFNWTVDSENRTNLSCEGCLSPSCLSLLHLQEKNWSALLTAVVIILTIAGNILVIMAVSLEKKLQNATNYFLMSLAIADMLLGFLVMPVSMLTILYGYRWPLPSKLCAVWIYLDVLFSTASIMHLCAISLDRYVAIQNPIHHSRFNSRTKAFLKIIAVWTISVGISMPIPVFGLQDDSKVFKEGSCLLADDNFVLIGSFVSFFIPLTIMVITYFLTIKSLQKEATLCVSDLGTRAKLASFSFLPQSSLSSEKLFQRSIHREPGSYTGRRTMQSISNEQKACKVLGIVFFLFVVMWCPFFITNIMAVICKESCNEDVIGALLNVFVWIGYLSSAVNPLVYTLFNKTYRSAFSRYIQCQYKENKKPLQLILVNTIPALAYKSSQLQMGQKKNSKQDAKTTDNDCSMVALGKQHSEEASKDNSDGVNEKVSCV

SMILES | 5-HT2A receptor inhibition % (5-HT2A receptor) [%] | 5-HT1A receptor inhibition % (5-HT1A receptor) [%] | IC50 (5-HT1A receptor) [nM] | Ki (5-HT1A receptor) [nM] | D1 receptor inhibition % (dopamine D1 receptor) [%] | IC50 (dopamine D1 receptor) [nM] | Ki (dopamine D1 receptor) [nM] | IC50 (5-HT2A receptor) [nM] | Ki (5-HT2A receptor) [nM] | D2 receptor inhibition % (dopamine D2 receptor) [%] | IC50 (dopamine D2 receptor) [nM] | Ki (dopamine D2 receptor) [nM]
COc1cc2c(cc1OC)CN1CCc3c([nH]c4ccccc34)[C@@H]1C2 [AI001, (S)-2,3-dimethoxy-5,7,8,13,13b,14-hexahydroindolo [2′,3′:3,4]pyrido[1,2-b]isoquinoline] | 50.46 | 88.22 | 911 ± 130 | 728 ± 104 |  |  |  |  |  |  |  | 
COc1c(O)ccc2c1CN1CCc3sc(C)cc3[C@@H]1C2 [AS003, (S)-2-methyl-8-methoxy-9-hydroxy-4,7,12,12a-tetrahydro-5H-benzo[g]thieno[3,2-a]quinolizine] | 90.43 | 91.91 | 514 ± 111 | 405 ± 87.1 | 99.80 | 74 ± 4.3 | 37.9 ± 2.21 | 2230 ± 46.5 | 1070 ± 22.4 | 40.31 |  | 
COc1c(O)ccc2c1CN1CCc3sc(C)cc3[C@H]1C2 [AS004, (R)-2-methyl-8-methoxy-9-hydroxy-4,7,12,12a-tetrahydro-5H-benzo[g]thieno[3,2-a]quinolizine] | 44.24 | 51.69 |  |  | 86.32 | 230 ± 44.8 | 115 ± 22.4 |  |  | 6.97 |  | 
CCc1cc2c(s1)CCN1Cc3c(ccc(O)c3OC)C[C@@H]21 [AS005, (S)-2-ethyl-8-methoxy-9-hydroxy-4,7,12,12a-tetrahydro-5H-benzo[g]thieno[3,2-a]quinolizine] | 76.11 | 98.58 | 162 ± 3.8 | 130 ± 3.03 | 98.23 | 86.8 ± 11.3 | 47.6 ± 6.18 |  |  | 62.98 |  | 
COc1ccc2c(c1OC)CN1CCc3sccc3[C@@H]1C2 [AS022, (S)-8,9-dimethoxy-4,7,12,12a-tetrahydro-5H-benzo [g]thieno[3,2-a]quinolizine] | 32.31 | 6.60 |  |  | 69.25 |  |  |  |  | 5.21 |  | 
COc1ccc2c(c1OC)CN1CCc3sc(C)cc3[C@@H]1C2 [AS023, (S)-2-methyl-8,9-dimethoxy-4,7,12,12a-tetrahydro-5H-benzo[g]thieno[3,2-a]quinolizine] | 60.08 | 76.45 |  |  | 89.62 | 714 ± 15.7 | 357 ± 7.83 |  |  | 22.17 |  | 
COc1ccc(OC)c2c1C[C@H]1c3cc(C)sc3CCN1C2 [AS032, (S)-2-methyl-8,11-dimethoxy-4,7,12,12a-tetrahydro-5H-benzo[g]thieno[3,2-a]quinolizine] | 30.01 | 74.09 |  |  | 96.00 | 416 ± 26.9 | 159 ± 28.9 |  |  | 13.75 |  | 
COc1c(N)ccc2c1CN1CCc3sccc3[C@@H]1C2 [AS050, (S)-8-methoxy-9-amino-4,7,12,12a-tetrahydro-5H-benzo[g]thieno[3,2-a]quinolizine] | 74.25 | 49.26 |  |  | 99.02 | 1520 ± 357 | 685 ± 72.2 |  |  | 22.63 |  | 
COc1c(NC(C)=O)ccc2c1CN1CCc3sccc3[C@@H]1C2 [AS051, (S)-8-methoxy-9-acetylamino-4,7,12,12a-tetrahydro-5H-benzo[g]thieno[3,2-a]quinolizine] | 46.59 | 33.90 |  |  | 76.38 |  |  |  |  | 1.29 |  | 
COc1cc2c(cc1O)[C@@H]1Cc3sccc3CN1CC2 [DS001, (S)-2-hydroxy-3-methoxy-5,8,12,12a-tetrahydro-6H-benzo[a]thieno[3,2-g]quinolizine] |  |  |  |  |  | 172 ± 8.49 | 87 ± 4.3 |  |  |  | 396 ± 68.2 | 88 ± 15.2
CCc1cc2c(s1)C[C@H]1c3cc(O)c(OC)cc3CCN1C2 [DS003, (S)-2-hydroxy-3-methoxy-10-ethyl-5,8,12,12a-tetrahydro-6H-benzo[a]thieno[3,2-g]quinolizine] | 45.15 | 92.10 | 1250 ± 237 | 998 ± 190 | 98.16 | 48.1 ± 0.68 | 26.3 ± 0.37 |  |  | 98.50 | 180 ± 16.8 | 40.8 ± 3.8
CCCc1cc2c(s1)C[C@H]1c3cc(O)c(OC)cc3CCN1C2 [DS005, (S)-2-hydroxy-3-methoxy-10-n-propyl-5,8,12,12a-tetrahydro-6H-benzo[a]thieno[3,2-g]quinolizine] | 29.55 | 85.33 | 2460 ± 286 | 1970 ± 229 | 96.74 | 113 ± 12.6 | 61.7 ± 6.88 |  |  | 96.31 | 171 ± 9.5 | 38.6 ± 2.15
COc1cc2c(cc1O)[C@@H]1Cc3sc(CC(C)C)cc3CN1CC2 [DS006, (S)-2-hydroxy-3-methoxy-10-(2-methylpropyl)-5,8, 12,12a-tetrahydro-6H-benzo[a]thieno[3,2-g]quinolizine] | 50.31 | 83.71 |  |  |  |  |  |  |  |  |  | 
CCCCc1cc2c(s1)C[C@H]1c3cc(O)c(OC)cc3CCN1C2 [DS007, (S)-2-hydroxy-3-methoxy-10-n-butyl-5,8,12,12a-tetrahydro-6H-benzo[a]thieno[3,2-g]quinolizine] | 53.34 | 87.03 | 1080 ± 96.7 | 864 ± 77.3 | 97.62 | 113 ± 13 | 62.2 ± 7.13 |  |  | 99.53 | 76.3 ± 8.46 | 17.6 ± 1.95
COc1cc2c(cc1O)[C@@H]1Cc3sc(CCC(C)C)cc3CN1CC2 [DS008, (S)-2-hydroxy-3-methoxy-10-(3-methylbutyl)-5,8,12, 12a-tetrahydro-6H-benzo[a]thieno[3,2-g]quinolizine] |  |  |  |  | 88.78 |  |  |  |  | 90.45 | 239 ± 14.7 | 79.5 ± 4.83
COc1cc2c(cc1O)[C@@H]1Cc3sc(CCCl)cc3CN1CC2 [DS013, (S)-2-hydroxy-3-methoxy-10-(2-chloroethyl)-5,8,12, 12a-tetrahydro-6H-benzo[a]thieno[3,2-g]quinolizine] | 34.81 | 89.84 | 692 ± 102 | 553 ± 81.6 | 98.64 |  | 16.4 ± 2.81 |  |  | 98.37 | 146 ± 7.19 | 34.4 ± 2.72
COc1cc2c(cc1O)[C@@H]1Cc3sc(CCCCl)cc3CN1CC2 [DS015, (S)-2-hydroxy-3-methoxy-10-(3-chloropropyl)-5,8, 12,12a-tetrahydro-6H-benzo[a]thieno[3,2-g]quinolizine] |  | 92.24 | 148 ± 28.6 | 119 ± 23 | 96.10 | 144 ± 5.35 | 77 ± 2.85 |  |  | 97.19 | 55.1 ± 6.89 | 18.4 ± 2.3
COc1cc2c(cc1O)[C@@H]1Cc3sc(CCCCCl)cc3CN1CC2 [DS016, (S)-2-hydroxy-3-methoxy-10-(4-chlorobutyl)-5,8,12, 12a-tetrahydro-6H-benzo[a]thieno[3,2-g]quinolizine] |  |  |  |  | 95.84 | 297 ± 20.1 | 158 ± 10.7 |  |  | 93.54 | 150 ± 23.4 | 49.9 ± 7.8
